Assays:
KCHSC (kochia) [1] = assay: Pre-emergence herbicidal activity, cool season; type: in vivo, Kochia scoparia; conditions: lowest tested rate with 80% or greater inhibition; rates 300, 100, 30, 10 g/ha; about 14 days
Description: Tables 5 to 8 summarize results of tests conducted as described below to determine the pre-emergence herbicidal activity, in the form of a GR80 value, of illustrative compounds of this invention. […] Compounds of the invention were typically applied at rates of 300, 100, 30, and 10 g/ha. Where herbicidal activity was evident but 80% inhibition was not achieved at the highest rate tested, an asterisk (*) is shown in the following tables.
The pre-emergence tests were conducted by the following procedure. Topsoil was sieved to pass through a 1.27 cm screen. Fertilizer was added to the topsoil and the mixture was then sterilized by heating. The topsoil mixture was placed in a pot and compacted to a depth of 1.0 to 1.25 cm from the top of the pot. Seeds of each of several monocotyledonous and dicotyledonous annual plant species were placed on top of the soil. Additional soil was subsequently placed over the seeds to level-fill the pot. A known amount of each test compound dissolved or suspended in an appropriate organic solvent was diluted with a 50:50 mix of acetone and water and applied to the surface of the soil. After treatment the plants were placed in a greenhouse where they received 0.64 cm of overhead irrigation. All subsequent watering consisted of a light overhead mist and/or subirrigation as needed for germination and growth. Tables 5 and 6 below relate to warm season plant species which were placed after pre-emergence treatment in a greenhouse with a 30/21° C. day/night temperature regime. Tables 7 and 8 below relates to cool season plant species placed after pre-emergence treatment in a greenhouse or growth chamber with an 18/13° C. day/night temperature regime.
(§1) Approximately 14 days after planting and treating, the plants were observed and herbicidal efficacy recorded as percent inhibition by comparison with untreated plants.
The plant species usually regarded as weeds which were utilized in the tests are identified in the tables below according to the following legend, in which “d” indicates a dicotyledonous species and “m” a monocotyledonous species. All monocotyledonous species included in the tests herein are grasses.

DATST (jimsonweed) = assay: Pre-emergence herbicidal activity, warm season; type: in vivo, Datura stramonium; conditions: GR80 = lowest tested rate (300, 100, 30, 10 g/ha) with 80% or greater inhibition; approx. 14 days after treating; 30/21° C.
How it was run: (§2)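 Seeds sown in sterilised fertilised topsoil received surface-applied compound in 50:50 acetone/water, typically at 300, 100, 30 and 10 g/ha, then greenhouse-grown at 30/21° C (warm-season species) or 18/13° C (cool-season species). Percent inhibition versus untreated plants was scored at about 14 days, giving GR80; an asterisk marks activity short of 80% at the top rate.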

SASKR (russian thistle) = assay: Pre-plant incorporated (PPI) herbicidal activity, cool season; type: in vivo, Salsola kali; conditions: for Percent inhibition SASKR: weed, PPI application
Description: (§3) In another set of tests, the pre-plant incorporated (PPI) activity of compounds of this invention was evaluated on the same species as for the pre-emergence tests described above. In the PPI tests the following procedure, designed to simulate PPI application, was used.
(§4) A pre-prepared topsoil mixture (described above) was placed in a pot and compacted to a depth of 1.0 to 1.25 cm from the top of the pot. Seeds of each of several monocotyledonous and dicotyledonous annual plant species were placed on top of the soil. A sufficient quantity of soil to cover the seeds and level fill the pot was weighed into an open container. A known amount of the test compound was dissolved or suspended in an organic solvent and applied by spraying to this cover soil. The cover soil was thoroughly mixed to distribute the test compound throughout the cover soil, and was then applied as a cover layer over the seeds. Untreated soil was used as a cover layer for control pots. After treatment the plants were placed in a greenhouse where they received 0.64 cm of overhead irrigation. All subsequent watering consisted of a light overhead mist and/or subirrigation as needed for germination and growth. Tables 9 and 10 below relate to warm season plant species which were placed after pre-emergence treatment in a greenhouse with a 30/21° C. day/night temperature regime. Tables 11 and 12 below relates to cool season plant species placed after pre-emergence treatment in a greenhouse or growth chamber with an 18/13° C. day/night temperature regime. Only the compounds of Examples 1, 6, 8, 11, 13 and 15-20 were included in PPI tests.
as §1

BROTE (downy brome) = assay: Pre-emergence herbicidal activity, cool season; type: in vivo, Bromus tectorum; conditions: GR80 = lowest tested rate (300, 100, 30, 10 g/ha) with 80% or greater inhibition; approx. 14 days after treating; 18/13° C.
How it was run: as §2

[2] = system: IPOSS (annual morningglory); assay: Pre-plant incorporated (PPI) herbicidal activity, warm season; type: in vivo, Ipomoea spp.; conditions: PPI application
Description: as §3, §4, §1

CONAR (field bindweed) [3] = assay: Pre-emergence herbicidal activity, warm season; type: in vivo, Convolvulus arvensis; conditions: GR80 = lowest tested rate (300, 100, 30, 10 g/ha) with 80% or greater inhibition; approx. 14 days after treating; 30/21° C.
How it was run: as §2

AVEFA (wild oat) = assay: Pre-emergence herbicidal activity, cool season; type: in vivo, Avena fatua; conditions: GR80 = lowest tested rate (300, 100, 30, 10 g/ha) with 80% or greater inhibition; approx. 14 days after treating; 18/13° C.
How it was run: as §2

LOLMG (annual ryegrass) = assay: Pre-emergence herbicidal activity, cool season; type: in vivo, Lolium multiflorum; conditions: GR80 = lowest tested rate (300, 100, 30, 10 g/ha) with 80% or greater inhibition; approx. 14 days after treating; 18/13° C.
How it was run: as §2

CONAR (field bindweed) [4] = assay: Pre-plant incorporated (PPI) herbicidal activity, warm season; type: in vivo, Convolvulus arvensis; conditions: GR80 = lowest tested rate with 80% or greater inhibition, approx. 14 days after treating, 30/21° C.
Description: as §3, §4, §1

KCHSC (kochia) [5] = assay: Pre-plant incorporated (PPI) herbicidal activity, cool season; type: in vivo, Kochia scoparia; conditions: pre-plant incorporated; lowest tested rate with 80% or greater inhibition; about 14 days
Description: as §3, §4, §1

[6] = system: AGRRE (quackgrass (seedling)); assay: Pre-emergence herbicidal activity, cool season; type: in vivo, Elymus repens; conditions: GR80 = lowest tested rate (300, 100, 30, 10 g/ha) with 80% or greater inhibition; approx. 14 days after treating; 18/13° C.
How it was run: as §2

POROL (common purslane) = assay: Pre-plant incorporated (PPI) herbicidal activity, warm season; type: in vivo, Portulaca oleracea; conditions: GR80 = lowest tested rate with 80% or greater inhibition, approx. 14 days after treating, 30/21° C.
Description: as §3, §4, §1

[7] = system: CIRAR (canada thistle (seedling)); assay: as above; type: in vivo, Cirsium arvense; conditions: GR80 = lowest tested rate with 80% or greater inhibition, approx. 14 days after treating, 30/21° C.
Description: as §3, §4, §1

Structure (SMILES) | Pre-emergence activity GR80, KCHSC (KCHSC (kochia) [1]) [g/ha] | Pre-emergence activity (GR80) DATST (DATST (jimsonweed)) [g/ha] | Percent inhibition SASKR (SASKR (russian thistle); 30 g/ha) [%] | Percent inhibition SASKR (SASKR (russian thistle); 100 g/ha) [%] | Percent inhibition SASKR (SASKR (russian thistle); 300 g/ha) [%] | Percent inhibition SASKR (SASKR (russian thistle); 900 g/ha) [%] | Pre-emergence activity (GR80) BROTE (BROTE (downy brome)) | Percent inhibition IPOSS ([2]; 30 g/ha) [%] | Percent inhibition IPOSS ([2]; 100 g/ha) [%] | Percent inhibition IPOSS ([2]; 300 g/ha) [%] | Percent inhibition IPOSS ([2]; 900 g/ha) [%] | Pre-emergence activity (GR80) CONAR (CONAR (field bindweed) [3]) [g/ha] | Pre-emergence activity (GR80) AVEFA (AVEFA (wild oat)) [g/ha] | Pre-emergence activity (GR80) LOLMG (LOLMG (annual ryegrass)) | PPI activity (GR80) CONAR (CONAR (field bindweed) [4]) | PPI activity GR80, SASKR (SASKR (russian thistle); pre-plant incorporated, lowest tested rate with 80% or greater inhibition, about 14 days) [g/ha] | PPI activity GR80, KCHSC (KCHSC (kochia) [5]) [g/ha] | Pre-emergence activity (GR80) AGRRE [6] [g/ha] | PPI activity (GR80) POROL (POROL (common purslane)) [g/ha] | PPI activity (GR80) CIRAR [7] [g/ha]
CCN(CC)C(=O)n1cnc(S(=O)(=O)C(F)(F)Cl)n1 [Example 3] | 300 | 100 | 80 | 80 | 100 | 100 | * (activity observed, at least at highest rate, but <80% inhibition) | 0 | 50 | 100 | 80 | 300 | – | – | – | – | – | – | – | –
CCN(CC)C(=O)n1cnc(S(=O)(=O)C(F)(F)SC)n1 [Example 9] | 300 | 300 | 50 | 100 | 95 | 100 | 100 g/ha | 0 | 100 | 40 | 100 | 300 | 300 | * (activity observed, at least at highest rate, but <80% inhibition) | – | – | – | – | – | –
CCN(CC)C(=O)n1cnc(S(=O)(=O)C(F)(F)C(=O)c2ccccc2)n1 [Example 6] | 300 | – | – | – | – | – | – | – | – | – | – | – | 300 | 300 g/ha | * (activity observed, at least at highest rate, but <80% inhibition) | 300 | 300 | 300 | 300 | 100

From US6461997B1, “Triazole sulfones having herbicidal activity” (Monsanto Technology LLC, priority 1999, dated 2002)
